Measurements reported in publication PMC11788587, “Validating Low‐Dose Iohexol as a Marker for Glomerular Filtration Rate by In Vitro and In Vivo Studies” (Clinical and Translational Science, 2025).

Key:
hOCT1 = molecular target: T1, hOCT1 (Homo sapiens, UniProt O15245); experiment: Inhibition of hOCT1-mediated metformin uptake, stably transfected 293 cells; format: cell-based; details: substrate 50 µM metformin, median (95% CI)
T1 construct: expressed in transfected cells; host or cells: HEK-293 (293) cells, pEBTetD plasmid, doxycycline-induced
T1 sequence (O15245 1-554): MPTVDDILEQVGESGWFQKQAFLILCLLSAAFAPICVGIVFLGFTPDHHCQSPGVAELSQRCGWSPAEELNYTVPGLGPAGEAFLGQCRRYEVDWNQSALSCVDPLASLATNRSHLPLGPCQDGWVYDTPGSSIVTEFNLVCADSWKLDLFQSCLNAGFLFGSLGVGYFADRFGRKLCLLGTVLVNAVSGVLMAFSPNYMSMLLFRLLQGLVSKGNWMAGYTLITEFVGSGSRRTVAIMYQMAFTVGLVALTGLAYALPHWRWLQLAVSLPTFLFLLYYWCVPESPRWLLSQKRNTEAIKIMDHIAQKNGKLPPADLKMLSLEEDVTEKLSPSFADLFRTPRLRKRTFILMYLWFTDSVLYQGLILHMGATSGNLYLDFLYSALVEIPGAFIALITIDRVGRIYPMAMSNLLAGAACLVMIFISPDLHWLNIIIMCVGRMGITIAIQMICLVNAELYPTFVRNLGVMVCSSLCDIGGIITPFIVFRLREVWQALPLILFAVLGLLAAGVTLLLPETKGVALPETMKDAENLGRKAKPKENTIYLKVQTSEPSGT
Excerpt: We characterized the inhibitory potential of iohexol on major drug transporters recommended by regulatory agencies, which were previously assessed in a clinical transporter phenotyping cocktail study. These transporters include hOAT1, hOAT3, hOCT1, hOCT2, hMATE1, hMATE2K, human organic anion transporter polypeptides (hOATP)1B1, hOATP1B3, and human multidrug resistance protein (hMDR)1. Additionally, we investigated whether iohexol is a substrate for any of the renal transporters among these, including hOAT1/3, hOCT1/2, and hMATE1/2K. Cell‐based uptake assays were used to assess the activities of hOAT1/3, hOCT1/2, hMATE1/2K, and hOATP1B1/1B3. Inside‐out membrane vesicle uptake assays were used to evaluate the activity of hMDR1.
To determine the maximal inhibitory potential of iohexol, intracellular accumulation of a standard substrate was measured with and without the clinically relevant highest concentrations of iohexol. Control inhibitors were tested in each experiment.
In all subsequent in vitro studies, control experiments were conducted to validate the results. These included positive controls for substrates and inhibitors, as well as cells either without transporter expression or transfected with an empty vector, and control vesicles. Each condition, including cells or vesicles with the transporter and their respective controls, was analyzed in at least three replicates. For detailed information on materials, methods, and data analysis techniques used, refer to the Supporting Information. […]
R version 4.2.1 (R Foundation for Statistical Computing, Vienna, Austria) was used for statistical evaluations and data visualization. The data analysis approach for the in vitro study was detailed by Hsin CH et al..^1 In brief, for transport assays, the initial uptake rate was calculated by normalizing the substrate concentration to both the protein concentration and the incubation time for each dish or well. The transporter-mediated uptake rate (net uptake) was determined by performing an element-wise subtraction of uptake rates from different conditions. […]

[1] = Clinical trial in healthy volunteers, adverse events; format: in vivo, human; details: 12 healthy subjects, single i.v. doses 259 mg and 3235 mg
Protocol: The trial had two separate objectives, that is, (i) to assess dose linearity of iohexol pharmacokinetics for a lower dose (reported here) and (ii) to improve the assessment of creatinine volume of distribution by oral administration of creatinine in beef meat (will be reported separately). Building on the PK findings from a 3235 mg iohexol injection, we determined that the current quantification method is sufficiently sensitive to measure iohexol plasma concentrations corresponding to doses over 10 times lower, up to at least 20 h postadministration. Therefore, a 259 mg iohexol dose was selected for this study. […] Each participant was randomly assigned to one of six sequences, receiving iohexol intravenously at different single doses on separate occasions: (1) 259 mg iohexol without beef ingestion (defined as “fasting,” “test”); (2) 3235 mg iohexol fasting (“reference”); and (3) 3235 mg iohexol with beef ingestion (not reported here). The washout interval between administrations was 7 to 14 days. Adverse events were surveyed until the completion of the study.
Adverse events were monitored at multiple time points: within 1 hour before the administration of iohexol, and then at 10 minutes, 30 minutes, 1 hour, and 2 hours post-dose, as well as at the end of hospitalization for each period and during the end-of-study evaluation. Vital signs were recorded at the same time points as adverse events. Overall health was reassessed at the end of the study.

- Inhibitory effect (% reduction of specific activity) (hOCT1; 20 mM iohexol): no notable inhibitory effects
- inhibition at 1000 µM (hOCT1; HEK293, 1 mM iohexol, read-out: Inhibitory effect (% reduction of specific activity)): -9.8%
- inhibition at 20000 µM (hOCT1; HEK293, 20 mM iohexol, read-out: Inhibitory effect (% reduction of specific activity)): -22%
SMILES: CC(=O)N(CC(O)CO)c1c(I)c(C(=O)NCC(O)CO)c(I)c(C(=O)NCC(O)CO)c1I (stereo not drawn) [iohexol]
- Adverse events related to iohexol [1]: None of these were related to iohexol
- Number of adverse events reported [1]: 9
- Subjects reporting adverse events [1]: 7 of 12
